Inhibition in vivo and IC50 data for 20 compounds are collected here from US5585385A, “Heterocyclic compounds, their production and use as tachykinin reactor antagonists” (Takeda Chemical Industries, Ltd., priority 1993, dated 1996).

Test [1] has as its system plasma extravasation induced by capsaicin in trachea. In words: Inhibitory effect on plasma extravasation induced by capsaicin in trachea of guinea pigs. The class given is in vivo, guinea pigs (Hartley type white male). As to conditions: Cavia porcellus, iv, 5 min, 5 min before capsaicin (150 μg/kg i.v.), guinea pig trachea, n=6; for inhibition in vivo at 0.03 mg/kg: 0.03 mg/kg i.v.; for inhibition in vivo at 0.1 mg/kg: 0.1 mg/kg i.v. The protocol: Inhibitory effect on plasma extravasation induced by capsaicin in trachea of guinea pigs
Guinea pigs (Hartley type white male guinea pigs), (n=6) were anesthetized with 35 mg/kg of pentobarbital injected intraperitoneally (i.p.), then test compounds were administered intravenously (i.v.). After 5 minutes, a mixed solution of capsaicin (150 μg/kg) and Evans' blue dye (20 mg/kg) was administered intravenously to cause reaction. Ten minutes later, test animals were sacrificed by cutting the aorta, then perfused through pulmonary artery with 50 ml of physiological saline. The trachea was excised, and its wet weight was measured. The trachea was incubated at room temperature in 1 ml of acetone-0.3% sodium sulfate (7:3) overnight and Evans' blue dye was extracted from the trachea. The extract solution was centrifuged at 2800 rpm for 5 minutes. The amount of Evans' blue dye in the supernatant was quantified by measuring absorbance at […].
Plasma extravasation was expressed in terms of the amount of Evans' blue dye (μg) relative to the weight of the trachea (g). The efficacy of the drug was evaluated by calculating the % inhibition in accordance with the following formula. [formula] A: the amount of Evan's blue dye (μg/g) in each test animal B: the mean amount of Evan's blue dye (μg/g) of the group untreated with capsaicin.
C: the mean amount of Evan's blue dye (μg/g) of control group

The target of test [2] is T1, substance P receptor (Homo sapiens, UniProt P25103).
T1 construct: The receptor was prepared from human lymphoblast cells (IM-9); endogenous in cells; host or cells: IM-9 human lymphoblast cells (crude membrane preparation)
T1 sequence (P25103 whole entry): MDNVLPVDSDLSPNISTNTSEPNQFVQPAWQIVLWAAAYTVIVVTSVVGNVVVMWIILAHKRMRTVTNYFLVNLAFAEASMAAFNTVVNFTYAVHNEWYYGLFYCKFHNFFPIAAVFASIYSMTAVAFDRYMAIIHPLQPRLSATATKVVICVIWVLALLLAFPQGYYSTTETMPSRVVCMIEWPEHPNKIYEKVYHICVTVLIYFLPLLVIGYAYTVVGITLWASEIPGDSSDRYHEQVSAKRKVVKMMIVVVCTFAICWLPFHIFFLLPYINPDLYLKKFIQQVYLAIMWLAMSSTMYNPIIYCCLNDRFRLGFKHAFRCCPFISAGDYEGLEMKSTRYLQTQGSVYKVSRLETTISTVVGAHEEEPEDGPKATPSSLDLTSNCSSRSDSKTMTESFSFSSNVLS
Briefly: Radioligand receptor binding inhibitory activity using receptor from human lymphoblast cells (IM-9), 125I-BHSP. The settings on record: human IM-9 cell receptor, 25° C., 30 minutes, pH 7.4, n=1. The procedure:
Radioligand receptor binding inhibitory activity
Binding inhibitory activity using receptor from human lymphoblast cells (IM-9)
The method of A. Margaret "Molecular Pharmacology 42, p.458 (1992)" was modified and used. The receptor was prepared from human lymphoblast cells (IM-9). IM-9 cells (2×10^5 cells/ml) were inoculated and incubated for 3 days (one liter), which was then subjected to centrifuge for 5 minutes at 500×g to obtain cell pellets. The pellets were washed once with phosphate buffer (Flow Laboratories, CAT. No. 28-103-05), which were then crushed using Polytron.homogenizer "Kinematika, Germany" in 30 ml of 50 mM Tris-HCl buffer (pH 7.4) containing 120 mM sodium chloride, 5 mM potassium chloride, 2 μg/ml chymostatin, 40 μg/ml bacitracin, 5 μg/ml phosphoramidon, 0.5 mM phenylmethyl sulfonyl fluoride, 1 mM ethylenediamine tetra-acetic acid, which was subjected to centrifuge at 40,000×g for 20 minutes. The residue was washed twice with 30 ml of the above-mentioned buffer, which was then preserved frozen (-80° C.) as a specimen of the receptor.
The specimen was suspended in a reaction buffer (50 mM Tri-HCl buffer (pH 7.4), 0.02% bovine serum albumin, 1 mM phenylmethylsulfonyl fluoride, 2 μg/chymostatin, 40 μg/ml bacitracin, 3 mM manganese chloride) and 100 ul portion was the suspension was used in the reaction. After addition of the sample and ^125 I-BHSP (0.46 KBq), the reaction was allowed to proceed in 0.2 ml of reaction buffer at 25° C. for 30 minutes. The amount of nonspecific binding was determined by adding substance P at a final concentration of 2×10^-6 M. After the reaction, using a cell harvester (290 PHD, Cambridge Technology, Inc, U.S.A.), rapid filtration was carried out through a glass filter (GF/B, Whatman, U.S.A.) to stop the reaction. After washing three times with 250 ul of 50 mM of Tris-HCl buffer (pH 7.4) containing 0.02% bovine serum albumin, the radioactivity remaining on the filter was determined with a gamma counter. Before use, the filter was immersed in 0.1% polyethyleneimine for 24 hours and air-dried. […] (Radioligand means substance P labelled with ^125 I.) The number of this experiment is one.

As usually defined, the inhibition in vivo is the relative decrease from the control value, in per cent. A higher inhibition in vivo goes with a strong effect. What is called IC50 is the midpoint of a concentration-inhibition curve. A high value points to lower potency. The compound `CN(Cc1cc(C(F)(F)F)cc(C(F)(F)F)c1)C(=O)c1c(-c2ccc(F)cc2)c2cccnc2c(=O)n1C` [Example 1, N-[3,5-Bis(trifluoromethyl)benzyl]-5-(4-fluorophenyl)-7,8-dihydro-N, 7-dimethyl-8-oxo-6-pyrido[3,4-b]pyridine carboxamide] had an inhibition in vivo at 0.03 mg/kg in test [1] of 76.1%. Besides, in test [2], the concentration for half-maximal inhibition (IC50) is 0.08 nM.
As to `CN(Cc1cc(C(F)(F)F)cc(C(F)(F)F)c1)C(=O)c1c(-c2ccc(F)cc2)c2nccnc2c(=O)n1C` [Example 7, N-[3,5-Bis(trifluoromethyl)benzyl]-8-(4-fluorophenyl)-5,6-dihydro-N, 6-dimethyl-5-oxo-7-pyrido[3,4-b]pyrazine carboxamide], at 0.1 mg/kg the inhibition in vivo in test [1] was 71.9%. The compound further came in with a 50% inhibitory concentration (IC50) in test [2] of 0.2 nM.
In turn, `CN(Cc1cc(C(F)(F)F)cc(C(F)(F)F)c1)C(=O)c1c(-c2ccc(F)cc2)c2ccncc2c(=O)n1C` [Example 8, N-[3,5-Bis(trifluoromethyl)benzyl]-4-(4-fluorophenyl)-1,2-dihydro-N, 2-dimethyl-1-oxo-3-pyrido[3,4-c]pyridine carboxamide] had an inhibition in vivo at 0.1 mg/kg in test [1] of 64.9%. In test [2], this compound came in with an IC50 of 0.17 nM.
With `CN(Cc1cc(C(F)(F)F)cc(C(F)(F)F)c1)C(=O)c1c(-c2ccc(F)cc2)c2ccsc2c(=O)n1C` [Example 13, N-[3,5-Bis(trifluoromethyl)benzyl]-4-(4-fluorophenyl)-6,7-dihydro-N, 6-dimethyl-7-oxo-5-thieno[2,3-c]pyridinecarboxamide], in test [1], the inhibition in vivo at 0.1 mg/kg is 76.1%. In test [2], the IC50 was determined as 0.08 nM.
The corresponding values for `CN(Cc1cc(C(F)(F)F)cc(C(F)(F)F)c1)C(=O)c1c(-c2ccc(F)cc2)c2sccc2c(=O)n1C` [Example 17, N-[3,5-Bis(trifluoromethyl)benzyl]-7-(4-fluorophenyl)-4,5-dihydro-N, 5-dimethyl-4-oxo-6-thieno[3,2-c]pyridinecarboxamide] are 51.5% and 0.31 nM.
As to `Cc1ccccc1-c1c2c(c(=O)n(C)c1C(=O)N(C)Cc1cc(C(F)(F)F)cc(C(F)(F)F)c1)CCCN2` [Example 26, N-[3,5-Bis(trifluoromethyl)benzyl]-1,2,3,4,5,6-hexahydro-N, 6-dimethyl-8-(2-methylphenyl)-5-oxo-7-pyrido[4,3-b]pyridinecarboxamide], the inhibition in vivo at 0.03 mg/kg in test [1] is 46.2%. In test [2], this compound returned a half-inhibitory concentration (IC50) of 0.05 nM.
The compound `CN(Cc1cc(C(F)(F)F)cc(C(F)(F)F)c1)C(=O)c1c(-c2ccc(F)cc2)c2c(c(=O)n1C)CCCN2` [Example 27, N-[3,5-Bis(trifluoromethyl)benzyl]-8-(4-fluorophenyl)-1,2,3,4,5,6-hexahydro-N, 6-dimethyl-5-oxo-7-pyrido[4,3-b]pyridinecarboxamide] gave an inhibition in vivo at 0.1 mg/kg in test [1] of 74%. In addition, the half-inhibitory concentration (IC50) in test [2] turned out to be 0.18 nM.
`CN(Cc1cc(C(F)(F)F)cc(C(F)(F)F)c1)C(=O)c1c(-c2ccccc2)c2cccnc2c(=O)n1C` [Example 36, N-[3,5-Bis(trifluoromethyl)benzyl]-7,8-dihydro-N, 7-dimethyl-8-oxo-5-phenyl-6-pyrido[3,4-b]pyridinecarboxamide] came in with an inhibition in vivo at 0.03 mg/kg in test [1] of 54.3%. Moreover, the IC50 in test [2] is 0.34 nM.
In test [1], `CN(Cc1cc(C(F)(F)F)cc(C(F)(F)F)c1)C(=O)c1c(-c2ccc(F)cc2)c2ccn(C)c2c(=O)n1C` [Example 39, N-[3,5-Bis(trifluoromethyl)benzyl]-4-(4-fluorophenyl)-6,7-dihydro-N,1,6-trimethyl-7-oxo-5-pyrrolo[2,3-c]pyridinecarboxamide] yielded an inhibition in vivo at 0.1 mg/kg of 67.9%. In addition, in test [2], the concentration for half-maximal inhibition (IC50) was 0.28 nM.
The corresponding values for `CN(Cc1cc(C(F)(F)F)cc(C(F)(F)F)c1)C(=O)c1c(-c2ccc(F)cc2)c2scnc2c(=O)n1C` [Example 41, N-[3,5-Bis(trifluoromethyl)benzyl]-7-(4-fluorophenyl)-4,5-dihydro-N, 5-dimethyl-4-oxo-6-thiazolo[4,5-c]pyridinecarboxamide] are 46.9% and 1.1 nM.
`CN(Cc1cc(C(F)(F)F)cc(C(F)(F)F)c1)C(=O)c1c(-c2ccccc2)c2ccsc2c(=O)n1C` [Example 44, N-[3,5-bis(trifluoromethyl)benzyl]-6,7-dihydro-N, 6-dimethyl-7-oxo-4-phenyl-5-thieno[2,3-c]pyridinecarboxamide] showed a concentration for half-maximal inhibition (IC50) in test [2] of 0.24 nM.
On the same count and under the same terms, the value for `COc1ccccc1CN(C)C(=O)c1c(-c2ccccc2)c2ccsc2c(=O)n1C` [Example 46, 6,7-Dihydro-N-(2-methoxybenzyl)-N, 6-dimethyl-7-oxo-4-phenyl-5-thieno[2,3-c]pyridinecarboxamide] was 26 nM; that for `Cc1ccccc1-c1c(C(=O)N(C)Cc2cc(C(F)(F)F)cc(C(F)(F)F)c2)n(C)c(=O)c2sccc12` [Example 47, N-[3,5-Bis(trifluoromethyl)benzyl]-6,7-dihydro-N, 6-dimethyl-4-(2-methylphenyl)-7-oxo-5-thieno[2,3-c]pyridinecarboxamide] was 0.2 nM.
For the compound `CN(Cc1cc(C(F)(F)F)cc(C(F)(F)F)c1)C(=O)c1c(-c2ccccc2)c2c(c(=O)n1C)N(C)CCC2` [Example 49, N-[3,5-Bis(trifluoromethyl)benzyl]-1,2,3,4,7,8-hexahydro-5-phenyl-N,1,7-trimethyl-8-oxo-6-pyrido[3,4-b]pyridinecarboxamide], in test [1], the inhibition in vivo at 0.1 mg/kg is 66.7%. In test [2], this compound yielded an IC50 of 1.3 nM.
Compound `CN1CCc2c(-c3ccccc3)c(C(=O)N(C)Cc3cc(C(F)(F)F)cc(C(F)(F)F)c3)n(C)c(=O)c2C1` [Example 50, N-[3,5-Bis(trifluoromethyl)benzyl]-1,2,5,6,7,8-hexahydro-N,2,7-trimethyl-1-oxo-4-phenyl-3-pyrido[3,4-c]pyridinecarboxamide] displayed an inhibition in vivo at 0.1 mg/kg in test [1] of 52.2%. The compound also showed an IC50 in test [2] of 0.4 nM.
Take `CN(Cc1cc(C(F)(F)F)cc(C(F)(F)F)c1)C(=O)c1c(-c2ccccc2)c2c(c(=O)n1C)CCCN2` [Example 51]: in test [2], the half-inhibitory concentration (IC50) came to 2.1 nM.
Take `CN(Cc1cc(C(F)(F)F)cc(C(F)(F)F)c1)C(=O)c1c(-c2ccc(F)cc2)c2c(c(=O)n1C)CNCC2` [Example 53, N-[3,5-Bis(trifluoromethyl)benzyl]-4-(4-fluorophenyl)-1,2,5,6,7,8-hexahydro-N,2-dimethyl-1-oxo-3-pyrido[3,4-c]pyridinecarboxamide]: the inhibition in vivo at 0.1 mg/kg in test [1] is 59.9%. This compound also came in with an IC50 in test [2] of 0.15 nM.
In the same order, the values of `CN(Cc1cc(C(F)(F)F)cc(C(F)(F)F)c1)C(=O)c1c(-c2ccccc2)c2c(c(=O)n1C)CNCC2` [Example 54, N-[3,5-Bis(trifluoromethyl)benzyl]-1,2,5,6,7,8-hexahydro-N,2-dimethyl-1-oxo-4-phenyl-3-pyrido[3,4-c]pyridinecarboxamide] are 48.3% and 0.4 nM.
For the compound `CN(Cc1cc(C(F)(F)F)cc(C(F)(F)F)c1)C(=O)c1c(-c2ccccc2)c2c(c(=O)n1C)NCCC2` [Example 55, N-[3,5-Bis(trifluoromethyl)benzyl]-1,2,3,4,7,8-hexahydro-5-phenyl-N,7-dimethyl-8-oxo-6-pyrido[3,4-b]pyridinecarboxamide], in test [2], the half-inhibitory concentration (IC50) was found to be 0.7 nM.
For the compound “N-[3,5-Bis(trifluoromethyl)benzyl]-5-(chloro-2-methylphenyl)-7,8-dihydro-N,7-dimethyl-8-oxo-6-pyrido[3,4-b]pyridinecarboxamide and its isomer [Example 11]”, the half-maximal inhibitory concentration (IC50) in test [2] was determined as 0.2 nM.
